PubChem BioAssay (NCI)
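Exposure lasted 48 hours, with cells grown in 96-well plates and compounds tested at five concentrations. The concentration for 50% growth inhibition is given as GI50. TGI marks complete inhibition of growth.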

Experiments:
Assay in all cases: NCI tumour cell line growth inhibition, 48 h
[1] = test system: 786-0 renal
[2] = test system: A549 NSCLC
[3] = test system: ACHN renal
[4] = test system: BT-549 breast
[5] = test system: CAKI-1 renal
[6] = test system: CCRF-CEM leukemia
[7] = test system: COLO 205 colon
[8] = test system: DU-145 prostate
[9] = test system: EKVX NSCLC
[10] = test system: HCT-116 colon
[11] = test system: HCT-15 colon
[12] = test system: HOP-62 NSCLC
[13] = test system: HS 578T breast
[14] = test system: HT29 colon
[15] = test system: IGROV1 ovarian
[16] = test system: K-562 leukemia
[17] = test system: KM12 colon
[18] = test system: LOX IMVI melanoma
[19] = test system: M14 melanoma
[20] = test system: MCF7 breast
[21] = test system: MDA-MB-231 breast
[22] = test system: MDA-MB-435
[23] = test system: NCI-H226 lung
[24] = test system: NCI-H23 lung
[25] = test system: NCI-H460 lung
[26] = test system: NCI-H522 lung
[27] = test system: NCI/ADR-RES ovarian
[28] = test system: OVCAR-3 ovarian
[29] = test system: OVCAR-4 ovarian
[30] = test system: OVCAR-5 ovarian
[31] = test system: OVCAR-8 ovarian
[32] = test system: PC-3 prostate
[33] = test system: RPMI-8226 leukemia
[34] = test system: SF-268 CNS
[35] = test system: SF-295 CNS
[36] = test system: SK-MEL-2 melanoma
[37] = test system: SK-MEL-28 melanoma
[38] = test system: SK-MEL-5 melanoma
[39] = test system: SK-OV-3 ovarian
[40] = test system: SN12C renal
[41] = test system: SNB-19 CNS
[42] = test system: SNB-75 CNS
[43] = test system: SW-620 colon
[44] = test system: T-47D breast
[45] = test system: TK-10 renal
[46] = test system: U251 CNS
[47] = test system: UACC-257 melanoma
[48] = test system: UACC-62 melanoma
[49] = test system: UO-31 renal

CC(=O)c1ccc(Nc2cc(-n3nnc4ccccc43)nc3ccccc23)cc1
GI50 [1]: 11.9 µM | TGI [1]: 30.1 µM | GI50 [2]: 32.3 µM | TGI [2]: > 100 µM | GI50 [3]: 13.2 µM | TGI [3]: 26.9 µM | GI50 [4]: 16 µM | TGI [4]: 66.2 µM | GI50 [5]: 13.2 µM | TGI [5]: 35.2 µM | GI50 [6]: 5.18 µM | TGI [6]: > 100 µM | GI50 [7]: 30.6 µM | TGI [7]: > 100 µM | GI50 [8]: 14.6 µM | TGI [8]: 82 µM | GI50 [9]: 9.41 µM | TGI [9]: 67.4 µM | GI50 [10]: 32.9 µM | TGI [10]: > 100 µM | GI50 [11]: > 100 µM | TGI [11]: > 100 µM | GI50 [12]: 4.51 µM | TGI [12]: 18.2 µM | GI50 [13]: 9.02 µM | TGI [13]: 28.8 µM | GI50 [14]: 12.9 µM | TGI [14]: > 100 µM | GI50 [15]: 55.7 µM | TGI [15]: > 100 µM | GI50 [16]: > 100 µM | TGI [16]: > 100 µM | GI50 [17]: 4.16 µM | TGI [17]: 25.6 µM | GI50 [18]: 13.4 µM | TGI [18]: > 100 µM | GI50 [19]: 10.9 µM | TGI [19]: 44.6 µM | GI50 [20]: 36.3 µM | TGI [20]: > 100 µM | GI50 [21]: 4.41 µM | TGI [21]: 35.7 µM | GI50 [22]: 19.7 µM | TGI [22]: 94.6 µM | GI50 [23]: 14.8 µM | TGI [23]: 59.4 µM | GI50 [24]: 15.8 µM | TGI [24]: 72.6 µM | GI50 [25]: 29.1 µM | TGI [25]: > 100 µM | GI50 [26]: 35.4 µM | TGI [26]: > 100 µM | GI50 [27]: 12 µM | TGI [27]: 46 µM | GI50 [28]: 14 µM | TGI [28]: 37.5 µM | GI50 [29]: 10.7 µM | TGI [29]: 61.9 µM | GI50 [30]: 26.2 µM | TGI [30]: > 100 µM | GI50 [31]: 7.83 µM | TGI [31]: 43.4 µM | GI50 [32]: 13.9 µM | TGI [32]: 72.4 µM | GI50 [33]: 2.5 µM | TGI [33]: 14 µM | GI50 [34]: 25.1 µM | TGI [34]: > 100 µM | GI50 [35]: 4.96 µM | TGI [35]: 13.6 µM | GI50 [36]: 27.6 µM | TGI [36]: > 100 µM | GI50 [37]: 15.5 µM | TGI [37]: > 100 µM | GI50 [38]: 26.6 µM | TGI [38]: 75.4 µM | GI50 [39]: 20.5 µM | TGI [39]: 43.4 µM | GI50 [40]: 6.24 µM | TGI [40]: 35.4 µM | GI50 [41]: 47.6 µM | TGI [41]: > 100 µM | GI50 [42]: 19.6 µM | TGI [42]: 60.5 µM | GI50 [43]: > 100 µM | TGI [43]: > 100 µM | GI50 [44]: 18.9 µM | TGI [44]: 87.1 µM | GI50 [45]: 9.46 µM | TGI [45]: 24.3 µM | GI50 [46]: 14.4 µM | TGI [46]: 44.1 µM | GI50 [47]: 45 µM | TGI [47]: > 100 µM | GI50 [48]: 14.5 µM | TGI [48]: 62.8 µM | GI50 [49]: 23 µM | TGI [49]: > 100 µM
